{
  "source": "paper PMC3591457",
  "about": "“Biodistribution and Elimination Study of Fluorine-18 Labeled N^ε-Carboxymethyl-Lysine following Intragastric and Intravenous Administration” (PLoS ONE, 2013)",
  "key": {"[1]": {"test": "microPET imaging after intravenous administration", "type": "in vivo, ICR mice", "settings": "after intravenous injection", "experimental": "After adjusting the animal board position, 0.15 mL of an ^18F-CML solution was administered intravenously via the tail vein. The solution of ^18F-CML was prepared just prior to the intravenous administration. The dose of ^18F-CML was adjusted to approximately 80 µCi per mouse (n = 4), and the pH of the solution was adjusted to 7.4. Here, the specific activity corresponded to 3 MBq/nmol. Dynamic PET images were acquired continuously for 2 hours.\nDynamic PET studies were performed using a dedicated microPET scanner for small animals. For imaging studies, the animals were under isoflurane anesthesia and then positioned and immobilized supine with their medial axis parallel to the axial axis of the scanner with the thorax and abdominal region (organs of interest: heart, liver, and kidneys) in the center of the field of view.\nApproximately 5 min was needed to set the position of the animals after intragastric or intravenous administration of the drug solution containing ^18F-CML. Then, the emission data were acquired for 120 min. An attenuation map was created for each mouse by intravenously administering the residual ^18F-CML after acquisition of the emission data. The acquired data were sorted into dynamic sinograms. […] The quantitative analyses of the hepatic and renal distributions of ^18F-CML were performed using ASIPro installed in the PET system."}, "[2]": {"test": "^18F-CML in vivo stability in mice (radio-HPLC of plasma and urine)", "design": "species or system ICR mice", "experimental": "The in vivo stability of the ^18F-CML in mice was determined using arterial blood and urine samples. Male ICR mice (n = 3) were anaesthetised with 2% vaporized isoflurane and injected with a dose of approximately 3.7 MBq of ^18F-CML in 250 µL of normal saline via the tail vein. […] Blood samples were removed immediately and centrifuged at 12,000 rpm for 2 min at 4°C to separate the plasma. The urinary bladder was carefully excised, and the urine was collected from the bladder. The plasma (30 µL) and an aliquot of the urine sample (20 µL) was injected into an HPLC column to analyze the in vivo stability of ^18F-CML in the mice.\nThe HPLC analysis method was based on using trichloroacetic acid to precipitation plasma proteins, which were subsequently separated by reversed-phase column liquid chromatography using a 150 mm×4.6 mm C18 column with a mobile phase of […] acetonitrile and pure water (55%/45%) and detected based on UV absorbance at 254 nm. Radioactivity signal was detected by a radiochromatography detector (PTW, Freiburg, Germany). The ratio of unchanged ^18F-CML to total radioactivity on the HPLC chromatogram was calculated and expressed as a percentage."}, "RAW264.7 cells": {"tested_on": "RAW264.7 cells", "test": "Cell uptake of ^18F-CML and native CML in RAW264.7 cells", "type": "cell-based", "settings": "n=3, P<0.01, blocking with non-radioactive CML", "experimental": "To compare the different bioactivities of CML and ^18F-CML, two cell lines were evaluated for their capacity to take up native CML and the fluorobenzoylated derivative ^18F-CML. RAW264.7 macrophages and HepG2 liver cells were cultured in DMEM/LOWGLUCOSE, supplemented with 10% fetal bovine serum (FBS), 4.0 mmol/L L-glutamine, 110 mg/L sodium pyruvate, 100 U/mL penicillin, and 100 mg/L streptomycin at 37°C and 5% CO2.\nFor ^18F-CML cell uptake studies, RAW264.7 cells and HepG2 cells were seeded into 24-well plates at a density of 4×10^5 cells per well. Radio-tracer ^18F-CML (0.5 µCi/well, 3 µmol/mL) was incubated in a 37°C water bath for 15, 30, 60, and 120 min. At each time point the cells were washed 3 times with phosphate-buffered saline (PBS). The supernatant, washing-up liquid (unbound activity) and the pellet (cell-bound activity) were transferred to new tubes. Triplicates of the counting tubes containing supernatant and cell pellet were counted individually using a gamma counter for 1 min. For the blocking experiment, the uptake was carried out in the presence of the non-radioactive CML(10 µmol/mL) and processed similarly as described above. The uptake (%) of radio-tracer into the cell was determined using a gamma counter according to the following equation: [drawing 1]\nFor CML cell uptake ratio studies, unaltered CML (10 µmol/mL) was added to RAW264.7 and HepG2 cell pellets individually. The total proteins of each cell line were initially extracted from the lysates of 4×10^5 cells. […] The supernatants were purified and detected usingby the method described by Drusch et al., which uses an RP-HPLC method with an ortho-phthaldialdehyde (OPA)-derivatisation and fluorescence detection suited for automation. The HPLC analysis method used a 250 mm×4.6 mm C18 column (GROM-SIL 100 ODS-0 AB, Herrenberg, Germany) and detected the fluorescence excitation at 340 nm and emission at 455 nm. The peak identification of CML was confirmed by the retention time and standard addition and was quantified using an external standard. The amount of CML was calculated and expressed as a percentage."}, "[3]": {"test": "Biodistribution after intragastric administration", "type": "in vivo, ICR mice", "settings": "for Uptake in bladder, percentage of injected dose per whole tissue / Uptake in brain, percentage of injected dose per whole tissue / Uptake in heart, percentage of injected dose per whole tissue / Uptake in intestines, percentage of injected dose per whole tissue / Uptake in kidneys, percentage of injected dose per whole tissue / Uptake in liver, percentage of injected dose per whole tissue / Uptake in lungs, percentage of injected dose per whole tissue / Uptake in muscles, percentage of injected dose per whole tissue / Uptake in pancreas, percentage of injected dose per whole tissue / Uptake in stomach, percentage of injected dose per whole tissue: intragastric administration, n=3, mean ± SD", "experimental": "The biodistribution of ^18F-CML was studied in eighteen young male ICR mice with a weight range of 18–20 g. Nine mice were used for intravenous administration and the other nine mice were used for intragastric administration.\nFor intravenous administration, ^18F-CML was injected into a lateral tail vein of the animals under light ether anesthesia. The injection volume (2–3 MBq; radiochemical purity 96%) was 0.1 mL. For intragastric administration, 1.5 MBq of ^18F-labeled CML was given via gastrointestinal tract tract.\nThe mice were sacrificed at 5, 60, and 120 min after administration of ^18F-CML (three mice at each time point). The animals were sacrificed by heart puncture under ether anaesthesia. The tissues and organs of interest were isolated and counted in a well-type γ counter. Additionally, 200 µL of blood was taken from the carotid artery. The distributions of ^18F-CML in different tissues and organs were calculated and expressed as the percent uptake of the injection dose per whole tissue (% ID)."}},
  "data": [
    {"smiles": "O=C(O)CNCCCCC(NC(=O)c1ccc([18F])cc1)C(=O)O", "note": "(stereo not shown) [^18F-CML]", "values": [
      {"measurement": "Duration of continued accumulation of radioactivity in the kidneys (PET)", "setting": "[1]", "result": "approximately 60 min"},
      {"measurement": "Metabolic products in the urine (radio HPLC)", "setting": "[2]; 40 min after injection", "result": "No metabolic products were observed"},
      {"measurement": "Radioactivity in an unchanged form in the plasma and urine (in vivo stability)", "setting": "[2]; 60 min after tail vein injection, RP-HPLC", "result": "more than 98%"},
      {"measurement": "Uptake of radioactivity in untreated cells relative to unlabelled CML-treated (blocked) cells", "setting": "RAW264.7 cells", "result": 1.8, "unit": "fold"},
      {"measurement": "Uptake in bladder, percentage of injected dose per whole tissue", "setting": "[3]; 5 min", "result": "5.20±1.68", "unit": "%ID"},
      {"measurement": "Uptake in brain, percentage of injected dose per whole tissue", "setting": "[3]; 5 min", "result": "1.04±0.02", "unit": "%ID"},
      {"measurement": "Uptake in heart, percentage of injected dose per whole tissue", "setting": "[3]; 5 min", "result": "1.05±0.25", "unit": "%ID"},
      {"measurement": "Uptake in intestines, percentage of injected dose per whole tissue", "setting": "[3]; 5 min", "result": "9.91±1.36", "unit": "%ID"},
      {"measurement": "Uptake in kidneys, percentage of injected dose per whole tissue", "setting": "[3]; 5 min", "result": "2.20±0.95", "unit": "%ID"},
      {"measurement": "Uptake in liver, percentage of injected dose per whole tissue", "setting": "[3]; 5 min", "result": "1.17±0.45", "unit": "%ID"},
      {"measurement": "Uptake in lungs, percentage of injected dose per whole tissue", "setting": "[3]; 5 min", "result": "0.35±0.19", "unit": "%ID"},
      {"measurement": "Uptake in muscles, percentage of injected dose per whole tissue", "setting": "[3]; 5 min", "result": "1.76±0.53", "unit": "%ID"},
      {"measurement": "Uptake in pancreas, percentage of injected dose per whole tissue", "setting": "[3]; 5 min", "result": "0.2±0.01", "unit": "%ID"},
      {"measurement": "Uptake in stomach, percentage of injected dose per whole tissue", "setting": "[3]; 5 min", "result": "76.85±7.01", "unit": "%ID"},
      {"measurement": "Uptake in bladder, percentage of injected dose per whole tissue", "setting": "[3]; 60 min", "result": "12.21±1.62", "unit": "%ID"},
      {"measurement": "Uptake in brain, percentage of injected dose per whole tissue", "setting": "[3]; 60 min", "result": "0.31±0.03", "unit": "%ID"},
      {"measurement": "Uptake in heart, percentage of injected dose per whole tissue", "setting": "[3]; 60 min", "result": "0.75±0.52", "unit": "%ID"},
      {"measurement": "Uptake in intestines, percentage of injected dose per whole tissue", "setting": "[3]; 60 min", "result": "52.29±8.71", "unit": "%ID"},
      {"measurement": "Uptake in kidneys, percentage of injected dose per whole tissue", "setting": "[3]; 60 min", "result": "3.31±1.91", "unit": "%ID"},
      {"measurement": "Uptake in liver, percentage of injected dose per whole tissue", "setting": "[3]; 60 min", "result": "1.0±0.12", "unit": "%ID"},
      {"measurement": "Uptake in lungs, percentage of injected dose per whole tissue", "setting": "[3]; 60 min", "result": "0.51±0.11", "unit": "%ID"},
      {"measurement": "Uptake in muscles, percentage of injected dose per whole tissue", "setting": "[3]; 60 min", "result": "2.16±1.82", "unit": "%ID"},
      {"measurement": "Uptake in pancreas, percentage of injected dose per whole tissue", "setting": "[3]; 60 min", "result": "0.32±0.02", "unit": "%ID"},
      {"measurement": "Uptake in stomach, percentage of injected dose per whole tissue", "setting": "[3]; 60 min", "result": "29.73±3.91", "unit": "%ID"},
      {"measurement": "Uptake in bladder, percentage of injected dose per whole tissue", "setting": "[3]; 120 min", "result": "29.59±3.7", "unit": "%ID"},
      {"measurement": "Uptake in brain, percentage of injected dose per whole tissue", "setting": "[3]; 120 min", "result": "0.02±0.01", "unit": "%ID"},
      {"measurement": "Uptake in heart, percentage of injected dose per whole tissue", "setting": "[3]; 120 min", "result": "0.29±0.59", "unit": "%ID"},
      {"measurement": "Uptake in intestines, percentage of injected dose per whole tissue", "setting": "[3]; 120 min", "result": "48.32±5.2", "unit": "%ID"},
      {"measurement": "Uptake in kidneys, percentage of injected dose per whole tissue", "setting": "[3]; 120 min", "result": "2.1±0.29", "unit": "%ID"},
      {"measurement": "Uptake in liver, percentage of injected dose per whole tissue", "setting": "[3]; 120 min", "result": "0.29±0.05", "unit": "%ID"},
      {"measurement": "Uptake in lungs, percentage of injected dose per whole tissue", "setting": "[3]; 120 min", "result": "0.23±0.05", "unit": "%ID"},
      {"measurement": "Uptake in muscles, percentage of injected dose per whole tissue", "setting": "[3]; 120 min", "result": "1.11±1.78", "unit": "%ID"},
      {"measurement": "Uptake in pancreas, percentage of injected dose per whole tissue", "setting": "[3]; 120 min", "result": "0.05±0.00", "unit": "%ID"},
      {"measurement": "Uptake in stomach, percentage of injected dose per whole tissue", "setting": "[3]; 120 min", "result": "17.87±2.1", "unit": "%ID"},
      {"measurement": "Accumulation of radioactivity in the gastrointestinal tract", "setting": "[3]; intragastric, 60 min", "result": "approximately 82 % ID"},
      {"measurement": "Fraction excreted in the urine", "setting": "[3]; intragastric, 60 min", "result": 12, "unit": "% ID"},
      {"measurement": "Blood uptake", "setting": "[3]; intragastric, 120 min, percentage of wet tissue", "result": "0.95±0.09", "unit": "% ID"}
    ]}
  ]
}
